From patent US6383276B1, “Azomethine compound and oily magenta ink” (Fuji Photo Film Co., Ltd., priority 1999, dated 2002)

Key:
[1] = Absorption maximum and molar extinction coefficient of ethyl acetate solutions; assay type: physicochemical; details: ethyl acetate solution
Procedure: With respect to each of the ethyl acetate-base magenta inks [ethyl acetate solutions of the compounds (Ia-1), (Ia-6), (Ia-12), (Ia-13), (Ia-14) and (Ia-15)] prepared in Example 4, the absorption maximum (λmax) and molar extinction coefficient (ε) were measured.
With respect to each of the ethyl acetate-base magenta inks [ethyl acetate solutions of the compounds (X-1), (X-2), (X-3) and (X-4)] prepared in Comparison Example 1, the absorption maximum (λmax) was measured.

[2] = Measurement of solubility in ethyl acetate (Example 6, Comparison Example 1); assay type: physicochemical; details: 25° C. for 20 hours, filtered through 0.2 μm filter, ink concentrated
Procedure: With respect to each of the azomethine compounds (Ia-6), (Ia-12) and (Ia-14), 600 mg of the compound was placed in a lidded test tube. After 2 ml of ethyl acetate was added, the mixture was treated with an ultrasonic cleaner for 30 minutes. The resultant liquid was heated and stirred at 65° C. for 1 hour, and then cooled to room temperature. After leaving the test tube in a constant temperature bath at 25° C. for 20 hours, solid particles were filtered off with a micro filter having the pore size of 0.2 μm to prepare an oily magenta ink.
Each prepared ink was concentrated to measure the solubility, but solid (crystallite) was not deposited.
With respect to each of the following azomethine compounds (X-1), (X-2), (X-3) and (X-4), 30 mg of the compound was placed in a lidded test tube. After 2 ml of ethyl acetate was added, the mixture was treated with an ultrasonic cleaner for 30 minutes. The resultant liquid was heated and stirred at 65° C. for 1 hour, and then cooled to room temperature. After leaving the test tube in a constant temperature bath at 25° C. for 20 hours, solid particles were filtered off with a micro filter having the pore size of 0.2 μm to prepare an oily magenta ink. [drawing 13]
Each prepared ink was concentrated to measure the solubility.

SMILES | Absorption maximum (λmax) ([1]; Table 1) [nm] | Molar extinction coefficient (ε) ([1]; Table 1) | Absorption maximum (λmax) ([1]; Table 2) [nm] | Solubility [2]
CCCCCCC(Oc1ccc(C(C)(C)CC)cc1C(C)(C)CC)C(=O)NCC(C)c1nc2n(n1)N=C(C)C2=Nc1ccc(N(CC)CCC#N)cc1 (stereo not drawn) [Ia-1] | 512 | 5.0 × 10^4 |  | 
CCCCCCC(Oc1ccc(C(C)(C)CC)cc1C(C)(C)CC)C(=O)NCC(C)c1nc2n(n1)N=C(C)C2=Nc1ccc(N(CCO)CCC#N)cc1C (stereo not drawn) [Ia-6] | 522 | 5.2 × 10^4 | 522 | 30.2 wt. % or more
CCN(CC)c1ccc(N=C2C(C)=Nn3nc(C(C)CNC(=O)CCCOc4ccc(OC)cc4)nc32)c(C)c1 (stereo not drawn) [X-4, reference compound] |  |  | 536 | 0.63 wt. %
CCCCCCCCCCCCCCOC(=O)CCC(=O)Nc1ccc(-c2nc3n(n2)N=C(C(C)(C)C)C3=Nc2ccc(N(CCC#N)CCCC)cc2)cc1 [Ia-12] | 519 | 4.8 × 10^4 | 519 | 30.1 wt. % or more
CCN(CCC#N)c1ccc(N=C2C(C)=Nn3nc(C(C)CNC(=O)CCCOc4ccc(OC)cc4)nc32)cc1 (stereo not drawn) [X-3, reference compound] |  |  | 511 | 1.72 wt. %
COc1ccc(OCCN(CCC#N)c2ccc(N=C3C(C)=Nn4nc(C(C)CN5C(=O)c6ccccc6C5=O)nc43)cc2)cc1 (stereo not drawn) [X-1, reference compound] |  |  | 504 | 0.18 wt. %

Other lines, results leading:

Absorption maximum (λmax) ([1]; Table 1) [nm] | Molar extinction coefficient (ε) ([1]; Table 1) | Absorption maximum (λmax) ([1]; Table 2) [nm] | Solubility [2] | SMILES
520 | 4.8 × 10^4 | 520 | 30.1 wt. % or more | CCCCCCC(Oc1ccc(C(C)(C)CC)cc1C(C)(C)CC)C(=O)Nc1ccc(-c2nc3n(n2)N=C(C(C)(C)C)C3=Nc2ccc(N(CCC#N)CCCC)cc2)cc1 (stereo not drawn) [Ia-14]
532 | 4.9 × 10^4 |  |  | CCCCCCC(Oc1ccc(C(C)(C)CC)cc1C(C)(C)CC)C(=O)Nc1ccc(-c2nc3n(n2)N=C(C(C)(C)C)C3=Nc2ccc(N(CCO)CCC#N)cc2C)cc1 (stereo not drawn) [Ia-15]
517 | 4.6 × 10^4 |  |  | CCCCCCC(Oc1ccc(C(C)(C)CC)cc1C(C)(C)CC)C(=O)Nc1ccc(-c2nc3n(n2)N=C(C(C)(C)C)C3=Nc2ccc(N(CC)CCC#N)cc2)cc1 (stereo not drawn) [Ia-13]
